Laboratory results taken from patent US20170197935A1, “INHIBITORS OF DNA GYRASE FOR THE TREATMENT OF BACTERIAL INFECTIONS” (Vitas Pharma Research Private Limited, priority 2012, published 2017).
Converted amounts (≈) assume the structure as drawn. Read-outs that look alike come from different tables or passages of the source.

Key:
Format in all cases: cell-based
[1] = system: Moraxella catarrhalis (ATCC 8176); assay: MIC by microbroth dilution, Moraxella catarrhalis ATCC 8176; conditions: ATCC8176
Method: (§1) Shown below are the microbiological activities of representative compounds of Formula I of the invention. The compounds were tested by the microbroth dilution method (National committee for Clinical Laboratory Standards, 2011, […]-08) and the Minimum Inhibitory Concentration (MIC) was determined.

[2] = system: Staphylococcus aureus (ATCC 29213); assay: MIC by microbroth dilution, Staphylococcus aureus ATCC 29213; conditions: ATCC29213
Method: as §1

E. coli (ATCC 25922) = assay: MIC by microbroth dilution, E. coli ATCC 25922; conditions: Escherichia coli
Method: (§2) Shown below are the microbiological activities of representative compounds of Formula I of the invention. The compounds were tested by the microbroth dilution method (National committee for Clinical Laboratory Standards, 2011, M07-08) and the Minimum Inhibitory Concentration (MIC) was determined.
(§3) Analysis of microbiological activity of compounds shown below are the microbiological activities of representative compounds of Formula II of the invention. The compounds were tested by the microbroth dilution method as per the reference in Example 1.

[3] = system: Methicillin resistant Staphylococcus aureus (ATCC 33591); assay: MIC by microbroth dilution, MRSA ATCC 33591
Method: as §2, §3

[4] = system: Enterococcus faecalis (ATCC 29212); assay: MIC by microbroth dilution, Enterococcus faecalis ATCC 29212; conditions: ATCC29212
Method: as §1

[5] = system: Streptococcus pneumoniae (ATCC 6301); assay: MIC by microbroth dilution, Streptococcus pneumoniae ATCC 6301; conditions: ATCC6301
Method: as §1

[6] = ATCC25922, Formula I compounds, read-out: MIC E. coli (ATCC 25922)
[7] = ATCC33591, Formula I compounds, read-out: MIC Methicillin resistant Staphylococcus aureus (ATCC 33591)
[8] = ATCC25922, Formula II compounds, read-out: Minimum Inhibitory Concentration (MIC) E. coli ATCC 25922
[9] = Formula II compounds, read-out: Minimum Inhibitory Concentration (MIC) MRSA ATCC 33591

SMILES	MIC [1]	MIC [2]	MIC (E. coli (ATCC 25922); [6])	MIC [3, 7]	MIC [4]	MIC [5]	MIC (E. coli (ATCC 25922); [8])	MIC [3, 9]
COc1ccc2ncc(C#N)c(CCN3CCC(NCc4cc(OC)c(O)c([N+](=O)[O-])c4)CC3)c2c1 [VT-03-00060]	> 32 µg/mL	> 4 µg/mL	> 32 µg/mL	> 4 µg/mL	–	–	–	–
COc1ccc2ncc(C#N)c(CCN3C4CCC3CC(NS(=O)(=O)c3ccccc3C)C4)c2c1 (centres unmarked) [VT-03-00017]	> 16 µg/mL	> 32 µg/mL	> 32 µg/mL	> 32 µg/mL	> 64 µg/mL	> 16 µg/mL	–	–
COc1ccc2c(c1)c(CCN1CCC(NCc3ccc4c(c3)OCCO4)CC1)c(C#N)c(=O)n2C [VT-03-00043]	–	16 µg/mL (≈ 32.7 µM)	> 32 µg/mL	> 16 µg/mL	–	–	–	–
COc1ccc2ncc(=O)n(CCN3CCC(NCc4ccc(C)c([N+](=O)[O-])c4)CC3)c2n1 [VT-03-00125]	–	–	–	–	–	–	32 µg/mL (≈ 70.7 µM)	> 4 µg/mL
COc1ccc2ncc(C#N)c(CCN3CCC(NCc4ccc([N+](=O)[O-])cn4)CC3)c2c1 [VT-03-00081]	–	–	> 32 µg/mL	1 µg/mL (≈ 2.24 µM)	–	–	–	–
COc1ccc2ncc(C#N)c(CCN3C4CCC3CC(NCc3ccc5c(c3)OCCO5)C4)c2c1 (centres unmarked) [VT-03-00021a]	2 µg/mL (≈ 4.13 µM)	≤ 0.03 µg/mL	16 µg/mL (≈ 33 µM)	0.06 µg/mL (≈ 0.124 µM)	2 µg/mL (≈ 4.13 µM)	0.12 µg/mL (≈ 0.248 µM)	–	–
COc1ccc2ncc(C#N)c(CCN3[C@@H]4CC[C@H]3CC(NCc3cc5c(c([N+](=O)[O-])c3)OCO5)C4)c2c1 (some centres unmarked) [VT-03-00070]	–	> 4 µg/mL	> 4 µg/mL	> 4 µg/mL	–	–	–	–
COc1ccc2ncc(C#N)c(CCN3[C@@H]4CC[C@H]3CC(NCc3ccc([N+](=O)[O-])s3)C4)c2c1 (some centres unmarked) [VT-03-00074]	2 µg/mL (≈ 4.19 µM)	1 µg/mL (≈ 2.09 µM)	32 µg/mL (≈ 67 µM)	2 µg/mL (≈ 4.19 µM)	8 µg/mL (≈ 16.8 µM)	2 µg/mL (≈ 4.19 µM)	–	–
COc1ccc2ncc(C#N)c(CCN3CCC(NCc4ccc(O)c(OC)c4)CC3)c2c1 [VT-03-00046]	–	16 µg/mL (≈ 35.8 µM)	> 32 µg/mL	> 16 µg/mL	–	–	–	–
COc1ccc2ncc(C#N)c(CCN3CCC(NCc4cc([N+](=O)[O-])c(C)cc4C)CC3)c2c1 [VT-03-00072]	–	> 4 µg/mL	> 4 µg/mL	> 4 µg/mL	–	–	–	–
COc1ccc2ncc(C#N)c(CCN3CCC(NCc4ccc(C)c([N+](=O)[O-])c4)(C(N)=O)CC3)c2c1 [VT-03-00083]	–	0.06 µg/mL (≈ 0.119 µM)	4 µg/mL (≈ 7.96 µM)	0.12 µg/mL (≈ 0.239 µM)	–	–	–	–
COc1ccc2ncc(C#N)c(CCN3[C@@H]4CC[C@H]3CC(NCc3ccc(C)c([N+](=O)[O-])c3)C4)c2c1 (some centres unmarked) [VT-03-00069]	–	> 4 µg/mL	> 4 µg/mL	> 4 µg/mL	–	–	–	–
Cc1ccc(CNC2CCN(CCn3c(=O)cnc4ccc(C(=O)O)cc43)CC2)cc1[N+](=O)[O-] [VT-03-00124]	–	–	–	–	–	–	2 µg/mL (≈ 4.3 µM)	–
COc1ccc2ncc(C#N)c(CCN3CC(CNCc4ccc(C)c([N+](=O)[O-])c4)C3)c2c1 [VT-03-00084]	2 µg/mL (≈ 4.49 µM)	0.5 µg/mL (≈ 1.12 µM)	8 µg/mL (≈ 18 µM)	0.5 µg/mL (≈ 1.12 µM)	2 µg/mL (≈ 4.49 µM)	0.25 µg/mL (≈ 0.561 µM)	–	–
COc1ccc2ncc(C#N)c(CCN3CCC(NCc4ncc([N+](=O)[O-])[nH]4)CC3)c2c1 [VT-03-00078]	–	> 4 µg/mL	> 32 µg/mL	–	–	–	–	–
CCc1ccc2ncc(=O)n(CCN3CCC(NCc4ccc(C)c(F)c4)CC3)c2c1 [VT-03-00112]	–	–	–	–	–	–	2 µg/mL (≈ 4.73 µM)	0.125 µg/mL (≈ 0.296 µM)
COc1ccc2ncc(C#N)c(CCN3C4CCC3CC(NS(=O)(=O)c3ccc5ccccc5c3)C4)c2c1 (centres unmarked) [VT-03-00022]	4 µg/mL (≈ 7.6 µM)	1 µg/mL (≈ 1.9 µM)	> 64 µg/mL	2 µg/mL (≈ 3.8 µM)	4 µg/mL (≈ 7.6 µM)	2 µg/mL (≈ 3.8 µM)	–	–
COc1ccc2ncc(C#N)c(CCN3C4CCC3CC(NCc3ccc5c(c3)NCCS5)C4)c2c1 (centres unmarked) [VT-03-00026a]	4 µg/mL (≈ 8.01 µM)	1 µg/mL (≈ 2 µM)	16 µg/mL (≈ 32 µM)	2 µg/mL (≈ 4 µM)	8 µg/mL (≈ 16 µM)	2 µg/mL (≈ 4 µM)	–	–
COc1ccc2ncc(=O)n(CCN3CC[C@H](NCc4ccc(C)c([N+](=O)[O-])c4)[C@@H](O)C3)c2c1 [VT-03-00135]	–	–	–	–	–	–	8 µg/mL (≈ 17.1 µM)	–
COc1ccc2c(c1)c(CCN1CCC(NCc3ccc4c(c3)NC(=O)CO4)CC1)c(C#N)c(=O)n2C [VT-03-00042]	–	> 16 µg/mL	> 32 µg/mL	> 16 µg/mL	–	–	–	–
